From patent US20250206754A1, “PAN-CHEMOKINE ANTAGONISTS FOR USE IN TREATING CANCER AND IMMUNE DISORDERS” ("Micar Innovation" LTD., priority 2022, published 2025)
Read-outs that look alike come from different tables or passages of the source.

Key:
IL-8 release = details: Homo sapiens, read-out: EC50, IL8 release
Method: For this purpose a model for the inhibition of CCL2 release from IL-4, IL-13, IL-22 and IFNγ-stimulated primary human keratinocytes (Eczematous inflammation) was used and also an assay for the inhibition of IL-8 release from IL-17A and TNFα (Psoriatic inflammation). […] Finally, migration assay by MB231cell line was performed.

CCR7 [1] = biological target: T1, CCR7 (Homo sapiens, UniProt P32248); assay: TANGO β-arrestin agonist assay, CCR7; assay type: cell-based
T1 construct: expressed in transfected cells
T1 sequence (P32248 25-378): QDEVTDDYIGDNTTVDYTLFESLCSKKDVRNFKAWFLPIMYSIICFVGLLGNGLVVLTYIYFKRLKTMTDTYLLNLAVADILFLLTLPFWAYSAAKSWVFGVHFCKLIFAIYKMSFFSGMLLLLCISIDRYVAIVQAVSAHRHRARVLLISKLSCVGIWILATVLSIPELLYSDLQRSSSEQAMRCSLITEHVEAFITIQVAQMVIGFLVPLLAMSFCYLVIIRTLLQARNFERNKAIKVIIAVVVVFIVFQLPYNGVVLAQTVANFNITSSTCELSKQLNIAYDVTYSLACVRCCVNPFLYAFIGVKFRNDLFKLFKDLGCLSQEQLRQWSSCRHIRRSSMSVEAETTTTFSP
Method: (§1) Selected compounds were initially sent for both antagonist and agonist TANGO β-arrestin assays. […] Replacement only on the amide group with CN led to strong activity decrease in β-arrestin assay: only 31% activity at about 30 μM and similar one at 100 μM (Table 1). Five more derivatives with replaced amide group were also tested in parallel by Ca^2+ mobilization assay and they all were not active up to the tested concertation of 100 μM.

CCR1 = biological target: T2, CCR1 (Homo sapiens, UniProt P32246); assay: β-arrestin selectivity assay, CCR1; assay type: cell-based
T2 sequence (P32246 1-355): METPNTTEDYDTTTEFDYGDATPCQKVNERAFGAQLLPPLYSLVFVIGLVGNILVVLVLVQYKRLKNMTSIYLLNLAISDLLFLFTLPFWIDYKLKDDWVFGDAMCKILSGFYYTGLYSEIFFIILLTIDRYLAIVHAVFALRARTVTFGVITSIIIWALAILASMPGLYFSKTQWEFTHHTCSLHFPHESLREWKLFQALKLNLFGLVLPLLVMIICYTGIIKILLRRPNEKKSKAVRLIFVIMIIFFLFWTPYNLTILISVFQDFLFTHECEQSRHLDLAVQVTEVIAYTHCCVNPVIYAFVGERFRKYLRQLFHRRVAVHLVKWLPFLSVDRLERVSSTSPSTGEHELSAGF

CCR5 = CCR5 (Homo sapiens, UniProt P51681); assay: cAMP assay, CCR5; assay type: cell-based; details: CCR5 (data not shown)
Method: (§2) The Kb values are also retrieved. […] Finally, to make it more clear the second messenger output for Hit1 and confirm the nature of β-arrestin bias GTPγS and ERK assays were also performed. […] Considering that the ERK is directly related to β-arrestin path and binds directly to the arrestin it was concluded that this compound is β-arrestin biased (Table 1 and FIGS. 3A and 3B). Finally, several other potential hits were identified but the activities were in a range of 25-35% at 100 μM concentration and they were discarded in this disclosure.

CCR7 [2] = biological target: T1, CCR7; assay: TANGO β-arrestin antagonist assay, CCR7; assay type: cell-based
Method: as §1
In current CCR7-β-arrestin antagonistic assay a Hill coefficient of 15.1 was obtained, without any transformation of the data. Instead for CCR1, CCR2, CCR3 and CCR5 coefficients much closer to one were calculated, 2.3, 3.1, 2.6 and 1.9, respectively. Moreover, the increase of the activity for CCR3 and CCR5 were over 50-folds for concentrations where the activity raised. […] Further, the CCR7-β-arrestin antagonistic assay was repeated and retrieved almost identical results.

CCR7 [3] = biological target: T1, CCR7; assay: GTPγS assay, CCR7; assay type: biochemical
Method: as §2
Current diversity data provide also several additional experimental evidences which are against colloid aggregation activity dependence: • Almost identical steep dose-response curves have been observed for the natural CCL19 and CCL21 agonists. Thus, it seems that this is not unique to Hit 1 case. • Hill coefficient of 1.5 in the ERK experiments and no steep slope (FIG. 3A). Moreover, the ERK dose-response curve looks like a typical single antagonist ligand. • At the same conditions as in the ERK assay the compound was in particular not active in the GTPγS assay up to 100 μM (FIG. 3B). […]

Sequence of CCR5 (P51681 whole entry): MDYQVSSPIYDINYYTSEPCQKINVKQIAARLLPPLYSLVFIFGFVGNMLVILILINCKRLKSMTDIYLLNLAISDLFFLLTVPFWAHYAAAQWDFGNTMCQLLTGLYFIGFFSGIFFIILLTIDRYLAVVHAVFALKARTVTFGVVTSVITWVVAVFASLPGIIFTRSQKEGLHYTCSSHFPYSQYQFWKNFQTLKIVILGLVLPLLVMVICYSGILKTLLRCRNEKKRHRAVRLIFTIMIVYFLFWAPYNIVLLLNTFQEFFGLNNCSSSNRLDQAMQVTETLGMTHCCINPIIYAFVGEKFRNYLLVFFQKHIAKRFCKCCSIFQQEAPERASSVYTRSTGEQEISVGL

For `NC(=O)c1ccccc1Oc1ncnc2sc(-c3ccccc3)cc12` [Hit 1, 2-({6-phenylthieno[2,3-d]pyrimidin-4-yl}oxy)benzamide], the EC50 (IL-8 release) was 0.733 µM, the agonist activity (CCR7 [1]) was “no any agonist activity” and the Hill coefficient (CCR1) was 2.3. The IC50 (CCR1) was 13.6 µM, the IC50 (CCR5) was 50 µM and the inhibition at 100 µM (CCR7 [2]; 100 μM concentration, read-out: β-arrestin assay (100 μM), Percent of inhibition) was 110%. It also gave a Hill coefficient (CCR7 [2]; CCR7-β-arrestin antagonistic assay, without any transformation of the data) of 15.1, an IC50 (CCR7 [2]; TANGO β-arrestin antagonist assay, CCR7, read-out: IC50, antagonistic activity) of 9.1 µM and a Hill slope (CCR7 [2]; same data transformed to log units, normalized, GraphPad 6) of 11.2. For the same molecule, the IC50 (CCR7 [2]; same data transformed to log units, normalized, GraphPad 6, read-out: IC50) was 9.2 µM, the antagonist activity (CCR7 [3]; GTPγS assay, highest concentration of 100 μM) was 16% and the “activity in GTPγS assay” value (CCR7 [3]; up to 100 μM) was “not active”.
